{"source": "patent US20240393319A1", "about": "“FLUORESCENT SENSORS AND METHODS OF MAKING AND USING” (Howard Hughes Medical Institute, priority 2023, published 2024)", "key": {"Rho° (ρ^0) cells": {"test_system": "Rho° (ρ^0) cells", "experiment": "Green:red ratio imaging in Rho° fibroblasts", "assay_type": "cell-based, mouse", "conditions": "10 mM 2dOG", "procedure": "(§1) Rho° and the parental LMTK-cells were maintained in T-75 flasks with DMEM+10% FBS+1 mM pyruvate+5 μM uridine. Two days prior to transfection, they were split into a 24-well plate (half Rho°, half LMTK) at 0.6 and 0.1 million cells per well, respectively. Cells were transfected with iATPSnFR2.HaloTag variants by lipofectamine (0.5 μg DNA+2 μL lipofectamine 2000 per well) for 4-6 hours in DMEM lacking FBS or antibiotics. Transfection media was replaced with fresh DMEM+10% FBS+penicillin/streptomycin overnight. Cells were labeled with JFX650 HaloTag ligand by adding the fluorophore to 100 nM for an hour. Cells were washed with Mammalian Cell Imaging Buffer and imaged in a Cytation 5 imaging reader (BioTek) over the course of about 2 hours. After about 20 minutes of imaging to establish a baseline fluorescence, the culture plate was removed from the instrument and buffer was replaced with the query buffer. The equilibration buffer contained 10 mM glucose, and the query buffers contained 10 mM 2dOG.\n(§2) Images were background subtracted and aligned for movement artefacts with the Gen5 software package that controls the Cytation 5 instrument. Images were assembled as TIF stacks and imported into ImageJ. […] Those ROIs were used to determine the ratio of green to red fluorescence for each well. […]"}, "LMTK- cells": {"test_system": "LMTK- cells", "experiment": "Green:red ratio imaging in parental LMTK- fibroblasts", "assay_type": "cell-based, mouse", "procedure": "as §1, §2"}, "[1]": {"target": "T1, iATPSnFR2.A95A.A119L.HaloTag-JFX650 (L1-VLVG, L2-ICV); cpSFGFP inserted in epsilon subunit of Bacillus subtilis PS3 F0-F1 ATPase; mutations A95A, A119L; SEQ ID N (Bacillus sp. PS3, UniProt P07678)", "T1 construct": "E. coli, Ni-NTA purified", "T1 sequence (P07678 whole entry, stated change not applied)": "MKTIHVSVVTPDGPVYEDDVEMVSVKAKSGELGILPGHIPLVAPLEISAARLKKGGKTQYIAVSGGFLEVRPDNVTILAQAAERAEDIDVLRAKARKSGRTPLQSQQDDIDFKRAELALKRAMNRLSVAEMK", "experiment": "ATP/nucleotide titration, binding curve fits", "conditions": "for Kd: A95A.A119L; for fluorescence change in response to nucleoside triphosphate: GTP, CTP, TTP", "text": "(1A) Artistic rendering of iATPSnFR2.HaloTag made with PyMol. The N-terminal fragment (residues 1-109) of the epsilon subunit of ATPase (orange, based on 2E5Y.PDB) is fused to cpSFGFP (green). The C-terminus of cpSFGFP is fused to the residual ATP-binding helix (residues 110-129) of the epsilon subunit (pink), which itself is fused to HaloTag (cyan). “Linkers” are shown as sticks in yellow. […] HaloTag fluorophore is shown as sticks in red. […] (1C-1E) Ratio of green (iATPSnFR2) to red (HaloTag-JFX650) fluorescence in fibroblasts transfected with three affinity variants of iATPSnFR2-HaloTag. […] Cells were incubated for 21 minutes in buffer containing 10 mM glucose, and then switched to buffer containing 10 mM 2-deoxyglucose. (1C) Rho° cells. (1D) Parental LMTK cell line. (1E) Parental cell line treated with both 2-deoxyglucose and oligomycin.\nATP (black), CTP (cyan), GTP (grey), TTP (purple).\n(§3) Purified protein was mixed with 1.1 molar equivalents of JFX650 HaloTag Ligand and incubated at room temperature for 1 hour and then at 4° C. overnight. Excess HaloTag Ligand was removed by gel filtration on a PD-10 column (GE Life Sciences) and re-concentrated by ultrafiltration.\nThe iATPSnFR2.HaloTag-JFX650 was the primary protein used for in vitro characterization."}, "MaLion": {"test_system": "MaLion", "conditions": "cited from earlier work"}, "ChemoG-ATPSiR": {"test_system": "ChemoG-ATPSiR", "conditions": "cited from earlier work"}, "[2]": {"test_system": "axonal mitochondria of primary neurons", "experiment": "Axonal mitochondrial ATP (mito-iATPSnFR2) after removal of glucose", "assay_type": "cell-based", "procedure": "Similar results were obtained in neurons where LDs were induced by blocking DDHD2 activity with KLH45 for 24 hours."}, "[3]": {"test_system": "axonal mitochondria of primary hippocampal neurons", "experiment": "Mitochondrial matrix ATP without glucose (mito-iATPSnFR2)", "assay_type": "cell-based, Sprague-Dawley rats", "procedure": "Data is represented as mean±SE for N=4 (each condition). […] Data from N=4 for each condition is represented as mean±SE, p-value (**≤0.001 for PA and PA+Etox) was determined using unpaired samples t-test. ns signifies non-significant change in mean values.\n(§4) Primary neuronal cultures were prepared as previously described. Hippocampal CA1 to CA3 regions were dissected, dissociated, and plated onto poly-L-ornithine-coated coverslips. Plating media consisted of the minimal essential medium, 0.5% glucose, insulin (0.024 g/l), transferrin ([…]), GlutaMAX 1%, N-21 (2%), and fetal bovine serum (10%). After 1-3 days in vitro (DIV), cells were fed and maintained in media with the following modifications: cytosine β-D-arabinofuranoside (4 μM) and FBS 5%. Cultures were incubated at 37° C. in a 95% air/5% CO2 incubator. […]\n(§5) Coverslips were loaded onto a custom chamber, mounted on a Zeiss inverted microscope and perfused at ˜100 μl min^−1 with Tyrode's solution containing: 119 mM NaCl, 2.5 mM KCl, 30 mM glucose, 25 mM HEPES, 2 mM CaCl2), 2 mM MgCl2, 50 μM DL-2-amino-5-phosphonovaleric acid (APV, AP5), 10 μM 6-cyano-7-nitroquinoxaline-2,3-dione (CNQX), adjusted to pH 7.4. […] Fluorescence was stimulated with OBIS 488 nm LX or OBIS 637 nm LS lasers (Coherent) passing through a laser speckle reducer (LSR 3005 at 12° diffusion angle, Optotune). […]"}, "[4]": {"test_system": "axonal mitochondria of primary hippocampal neurons", "experiment": "mito-iATPSnFR2.HaloTag imaging of mitochondrial ATP in neurons", "assay_type": "cell-based, rat", "conditions": "1.25 mM lactate + 1.25 mM pyruvate + 10 μM oligomycin", "procedure": "All experiments involving animals were performed in accordance with protocols approved by the Weill Cornell Medicine Institutional Animal Care and Use Committee. Neurons were derived from Sprague-Dawley rats (Charles River Laboratories strain code: 001, RRID: RGD_734476) of either sex on postnatal days 0-2).\nas §4, §5"}, "[5]": {"experiment": "TTP titration of purified iATPSnFR2 sensor", "assay_type": "binding", "procedure": "iATPSnFR2 variants were transformed into E. coli BL21 (DE3) pLysS cells. Protein expression was induced by growth in 300 mL autoinduction media supplemented with 100 μg/mL ampicillin at 30° C. […] Fractions that were fluorescent were pooled and concentrated by ultrafiltration (Amicon) and then dialyzed by Slide-A-Lyzer cassette (30 kDa cutoff) in Mammalian Cell Imaging Buffer. Protein concentration was quantified by alkali denaturation and measurement of the GFP chromophore, with an extinction coefficient of […] at 447 nm.\nas §3"}, "[6]": {"experiment": "ATP titration with added inorganic phosphate", "assay_type": "binding", "conditions": "20 mM PO4, pH 7"}, "[7]": {"test_system": "synaptic boutons of hippocampal neurons", "experiment": "Syn-iATPSnFR2.HaloTag imaging of ATP depletion in boutons", "assay_type": "cell-based, rat", "conditions": "5 mM glucose + 10 μM KA + 0.3 μM TTX"}, "[8]": {"experiment": "Stopped-flow fluorescence kinetics of ATP binding", "procedure": "Final concentration of protein was thus 0.1 μM."}, "[9]": {"test_system": "nerve terminals of dissociated hippocampal neurons", "experiment": "Cytosolic ATP in nerve terminals during action potential firing", "assay_type": "cell-based, rat", "conditions": "6 sec at 50 Hz, 5 mM glucose + 10 μM KA"}, "[10]": {"experiment": "pH dependence of fluorescence", "assay_type": "physicochemical", "conditions": "ligand-free sensor"}}, "note": "Like-named read-outs stand apart in the source and are kept apart here."}
{"compound": "O=CC[C@@H](O)[C@H](O)[C@H](O)CO", "note": "[2dOG, 2-deoxyglucose]", "values": [{"measurement": "green fluorescence after glucose replaced with 2dOG", "setting": "Rho° (ρ^0) cells", "result": "rapidly dropped"}, {"measurement": "fluorescence after 2dOG treatment", "setting": "LMTK- cells; 10 mM 2dOG, parental LMTK- cells", "result": "decreased fluorescence only in the parental LMTK-cells expressing the weakest affinity variant"}]}
{"compound": "Nc1ncnc2c1ncn2[C@@H]1O[C@H](COP(=O)(O)OP(=O)(O)O)[C@@H](O)[C@H]1O", "note": "[ADP]", "values": [{"measurement": "ΔF/F for ADP", "setting": "[1]", "result": "~6"}, {"measurement": "Kd", "setting": "[1]; read-out: affinity for ADP (binding curve fit), head-to-head with ATP", "result": 5.3, "unit": "mM"}, {"measurement": "Kd", "setting": "[1]; read-out: affinity for ADP, FIG. 1B, 5D", "result": 5.3, "unit": "mM"}]}
{"compound": "Nc1ncnc2c1ncn2[C@@H]1O[C@H](COP(=O)(O)O)[C@@H](O)[C@H]1O", "note": "[AMP]", "values": [{"measurement": "affinity for AMP", "setting": "[1]", "result": "minimal, if any, affinity"}]}
{"compound": "Nc1ccn([C@@H]2O[C@H](COP(=O)(O)OP(=O)(O)OP(=O)(O)O)[C@@H](O)[C@H]2O)c(=O)n1", "note": "[CTP]", "values": [{"measurement": "fluorescence change in response to nucleoside triphosphate", "setting": "[1]; FIG. 5E", "result": "changes fluorescence"}, {"measurement": "Kd", "setting": "[1]; read-out: affinity for CTP (binding curve fit), FIG. 5E", "result": "~10", "unit": "mM"}]}
{"compound": "Nc1nc2c(ncn2[C@@H]2O[C@H](COP(=O)(O)OP(=O)(O)OP(=O)(O)O)[C@@H](O)[C@H]2O)c(=O)[nH]1", "note": "[GTP]", "values": [{"measurement": "fluorescence change in response to nucleoside triphosphate", "setting": "[1]; FIG. 5E", "result": "changes fluorescence"}, {"measurement": "Kd", "setting": "[1]; read-out: affinity for GTP (binding curve fit), FIG. 5E", "result": "~10", "unit": "mM"}, {"measurement": "change in fluorescence with GTP", "setting": "MaLion", "result": "no change in fluorescence"}, {"measurement": "change in fluorescence with GTP", "setting": "ChemoG-ATPSiR", "result": "no change in fluorescence"}]}
{"compound": "O=C(N(CCc1ccccc1)C1CCCCC1)n1ncc(-c2ccc(OC(F)(F)F)cc2)n1", "note": "[KLH45]", "values": [{"measurement": "mitochondrial ATP levels after removal of glucose", "setting": "[2]; DDHD2 blocked for 24 hours, then glucose and KLH45 removed", "result": "sustained"}, {"measurement": "mitochondrial ATP levels in absence of glucose", "setting": "[3]; KLH45 for 24 hours, then removed", "result": "ATP levels are sustained"}]}
{"compound": "Cc1cn([C@H]2C[C@H](O)[C@@H](COP(=O)(O)OP(=O)(O)OP(=O)(O)O)O2)c(=O)[nH]c1=O", "note": "[TTP]", "values": [{"measurement": "fluorescence change in response to nucleoside triphosphate", "setting": "[1]; FIG. 5E", "result": "not"}]}
{"compound": "CCOC(=O)[C@@]1(CCCCCCOc2ccc(Cl)cc2)CO1", "note": "[etomoxir]", "values": [{"measurement": "mitochondrial ATP levels after removal of glucose", "setting": "[2]; after KLH45 24 hours, etomoxir included", "result": "ATP decline over a 10-minute period"}, {"measurement": "decline in mitochondrial ATP level", "setting": "[2]; palmitic acid pre-fed neurons, applied when removing glucose", "result": "identical to the control neurons without any fuel supplement"}]}
{"compound": "CC[C@H]1/C=C/C=C/C[C@@H](C)[C@H](O)[C@@](C)(O)C(=O)[C@@H](C)[C@H](O)[C@@H](C)C(=O)[C@@H](C)[C@H](O)[C@@H](C)/C=C/C(=O)O[C@@H]2[C@H](C)[C@H](CC1)O[C@]1(CC[C@H](C)[C@H](C[C@@H](C)O)O1)[C@H]2C", "note": "[oligomycin]", "values": [{"measurement": "fluorescence after 2dOG and oligomycin", "setting": "LMTK- cells; parental cells, both 2dOG and oligomycin", "result": "dropped in a manner similar to the ρ^0 cells"}, {"measurement": "mitochondrial ATP signal", "setting": "[4]", "result": "further collapse of the ATP signal"}]}
{"compound": "CCCCCCCCCCCCCCCC(=O)O", "note": "[palmitic acid]", "values": [{"measurement": "mitochondrial ATP levels in absence of glucose", "setting": "[2]; pre-fed for 4 hours, 10 minutes", "result": "sustained"}, {"measurement": "mitochondrial ATP levels in absence of glucose", "setting": "[3]; palmitic acid pre-fed for 4 hours, 10 minutes", "result": "mitochondrial ATP levels were sustained"}]}
{"compound": "A95A.A119L: low affinity iATPSnFR2 variant, characterised as HaloTag-JFX650 fusion", "values": [{"measurement": "fluorescence response to TTP", "setting": "[5]", "result": "but not TTP"}, {"measurement": "effect of inorganic phosphate on the sensor", "setting": "[6]", "result": "negligibly affected"}, {"measurement": "green fluorescence after glucose replaced with 2dOG", "setting": "Rho° (ρ^0) cells", "result": "nearly non-fluorescent within minutes of treatment"}, {"measurement": "average green to red fluorescence ratio in boutons", "setting": "[7]", "result": "greater drop than the medium affinity A95K variant"}]}
{"compound": "A95K: medium affinity iATPSnFR2 variant, characterised as HaloTag-JFX650 fusion", "values": [{"measurement": "rate of ATP binding / fluorescence change, comparison", "setting": "[8]", "result": "faster than A95A.A119L"}, {"measurement": "fluorescence change on action potential firing", "setting": "[9]", "result": "much smaller amplitude"}]}
{"compound": "S29W.A95K: high affinity iATPSnFR2 variant, characterised as HaloTag-JFX650 fusion", "values": [{"measurement": "rate of ATP binding / fluorescence change, comparison", "setting": "[8]", "result": "faster than A95A.A119L"}]}
{"compound": "iATPSnFR2: improved ATP sensor: cpSFGFP inserted in epsilon subunit of ATPase, L1-VLVG, L2-ICV, A95A, A119L", "values": [{"measurement": "effect of inorganic phosphate on the sensor", "setting": "[6]", "result": "not affected"}, {"measurement": "pKa", "setting": "[10]", "result": "about 6.0"}]}
